Here are results for 27 molecules from ChEMBL document CHEMBL1158638, “MMP-13 selective isonipecotamide alpha-sulfone hydroxamates” (Bioorg Med Chem Lett, 2010).

Series [1] deals with 72 kDa type IV collagenase (Homo sapiens, UniProt P08253). Briefly: Inhibition of MMP2.
Series [2] is described as follows: Selectivity ratio of IC50 for MMP2 to MMP13.
The target in the next series is Collagenase 3 (Homo sapiens, UniProt P45452).
The target of another series is T1, Interstitial collagenase (Homo sapiens, UniProt P03956).
T1 sequence (P03956 whole entry): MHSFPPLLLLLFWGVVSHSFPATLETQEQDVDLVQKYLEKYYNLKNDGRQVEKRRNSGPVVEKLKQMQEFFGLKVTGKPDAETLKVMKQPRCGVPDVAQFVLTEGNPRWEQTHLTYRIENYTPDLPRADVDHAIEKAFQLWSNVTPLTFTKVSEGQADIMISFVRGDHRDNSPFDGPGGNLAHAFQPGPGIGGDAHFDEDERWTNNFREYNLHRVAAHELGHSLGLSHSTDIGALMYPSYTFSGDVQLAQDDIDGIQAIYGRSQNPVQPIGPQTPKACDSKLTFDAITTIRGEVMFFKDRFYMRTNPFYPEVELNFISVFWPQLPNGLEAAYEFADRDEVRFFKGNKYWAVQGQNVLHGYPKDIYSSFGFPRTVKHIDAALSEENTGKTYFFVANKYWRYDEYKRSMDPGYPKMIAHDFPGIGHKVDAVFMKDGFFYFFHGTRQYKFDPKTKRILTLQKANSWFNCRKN
Briefly: Inhibition of MMP1.

The target in another series is Stromelysin-1 (Homo sapiens, UniProt P08254). Briefly: Inhibition of MMP3.
In a further series the target is Neutrophil collagenase (Homo sapiens, UniProt P22894). Kind of series: Inhibition of MMP8.
The target in series [3] is Matrix metalloproteinase-9 (Homo sapiens, UniProt P14780). Briefly: Inhibition of MMP9.
In series [4] the target is Matrix metalloproteinase-14 (Homo sapiens, UniProt P50281). Kind of series: Inhibition of MMP14.
The nature of series [5]: Half life in po dosed rat. The format is ADME, organism-based. The following applies: in vivo.
A short description of series [6]: Bioavailability in po dosed rat. In kind it is ADME, organism-based. The following applies: in vivo.

72 kDa type IV collagenase, sequence (P08253 whole entry): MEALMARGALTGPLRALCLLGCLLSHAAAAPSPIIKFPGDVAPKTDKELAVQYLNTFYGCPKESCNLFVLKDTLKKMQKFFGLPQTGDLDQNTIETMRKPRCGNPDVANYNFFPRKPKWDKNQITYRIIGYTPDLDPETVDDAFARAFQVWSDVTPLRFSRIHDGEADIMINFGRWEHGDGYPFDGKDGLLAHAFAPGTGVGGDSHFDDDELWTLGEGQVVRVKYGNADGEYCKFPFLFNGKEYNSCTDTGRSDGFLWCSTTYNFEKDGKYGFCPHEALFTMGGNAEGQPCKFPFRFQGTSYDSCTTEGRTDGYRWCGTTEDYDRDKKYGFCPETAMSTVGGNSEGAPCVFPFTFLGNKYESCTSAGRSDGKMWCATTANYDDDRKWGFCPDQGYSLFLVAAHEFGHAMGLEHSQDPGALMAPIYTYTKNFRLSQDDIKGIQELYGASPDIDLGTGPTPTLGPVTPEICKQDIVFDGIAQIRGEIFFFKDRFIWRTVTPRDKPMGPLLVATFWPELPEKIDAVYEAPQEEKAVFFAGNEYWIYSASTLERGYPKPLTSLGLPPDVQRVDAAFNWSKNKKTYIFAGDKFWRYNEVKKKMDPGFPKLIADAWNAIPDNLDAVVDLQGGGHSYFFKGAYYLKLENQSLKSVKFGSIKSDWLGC
Matrix metalloproteinase-9, sequence (P14780 whole entry): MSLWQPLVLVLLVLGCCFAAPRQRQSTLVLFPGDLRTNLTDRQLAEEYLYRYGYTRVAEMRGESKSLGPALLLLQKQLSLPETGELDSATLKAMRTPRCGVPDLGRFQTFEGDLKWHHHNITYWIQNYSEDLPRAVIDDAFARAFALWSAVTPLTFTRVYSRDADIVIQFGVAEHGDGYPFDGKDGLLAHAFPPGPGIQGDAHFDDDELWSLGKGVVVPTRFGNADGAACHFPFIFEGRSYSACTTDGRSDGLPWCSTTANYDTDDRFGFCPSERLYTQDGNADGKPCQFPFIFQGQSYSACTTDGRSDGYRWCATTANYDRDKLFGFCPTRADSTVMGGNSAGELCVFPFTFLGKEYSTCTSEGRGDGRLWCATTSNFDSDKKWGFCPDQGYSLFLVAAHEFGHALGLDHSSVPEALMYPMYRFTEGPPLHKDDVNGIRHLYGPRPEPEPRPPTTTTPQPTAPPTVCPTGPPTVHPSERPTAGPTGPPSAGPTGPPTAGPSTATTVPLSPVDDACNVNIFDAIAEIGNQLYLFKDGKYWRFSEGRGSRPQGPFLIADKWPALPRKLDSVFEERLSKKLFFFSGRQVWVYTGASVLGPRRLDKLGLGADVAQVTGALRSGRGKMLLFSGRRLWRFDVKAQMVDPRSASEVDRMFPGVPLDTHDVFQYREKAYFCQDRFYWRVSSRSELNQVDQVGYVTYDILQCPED
Stromelysin-1, sequence (P08254 whole entry): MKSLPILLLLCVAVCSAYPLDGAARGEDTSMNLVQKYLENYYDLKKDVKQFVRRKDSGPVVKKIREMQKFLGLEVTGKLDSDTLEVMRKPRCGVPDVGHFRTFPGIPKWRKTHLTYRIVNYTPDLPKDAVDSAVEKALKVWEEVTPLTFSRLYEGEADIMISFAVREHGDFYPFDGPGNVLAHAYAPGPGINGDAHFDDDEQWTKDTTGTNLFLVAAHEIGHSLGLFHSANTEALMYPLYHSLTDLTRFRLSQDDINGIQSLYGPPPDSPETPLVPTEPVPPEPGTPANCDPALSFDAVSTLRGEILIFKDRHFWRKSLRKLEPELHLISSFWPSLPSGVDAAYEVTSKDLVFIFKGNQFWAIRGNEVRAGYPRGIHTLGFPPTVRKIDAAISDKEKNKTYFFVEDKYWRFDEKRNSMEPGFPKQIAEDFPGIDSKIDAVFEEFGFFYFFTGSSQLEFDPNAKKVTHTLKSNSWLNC
Neutrophil collagenase, sequence (P22894 whole entry): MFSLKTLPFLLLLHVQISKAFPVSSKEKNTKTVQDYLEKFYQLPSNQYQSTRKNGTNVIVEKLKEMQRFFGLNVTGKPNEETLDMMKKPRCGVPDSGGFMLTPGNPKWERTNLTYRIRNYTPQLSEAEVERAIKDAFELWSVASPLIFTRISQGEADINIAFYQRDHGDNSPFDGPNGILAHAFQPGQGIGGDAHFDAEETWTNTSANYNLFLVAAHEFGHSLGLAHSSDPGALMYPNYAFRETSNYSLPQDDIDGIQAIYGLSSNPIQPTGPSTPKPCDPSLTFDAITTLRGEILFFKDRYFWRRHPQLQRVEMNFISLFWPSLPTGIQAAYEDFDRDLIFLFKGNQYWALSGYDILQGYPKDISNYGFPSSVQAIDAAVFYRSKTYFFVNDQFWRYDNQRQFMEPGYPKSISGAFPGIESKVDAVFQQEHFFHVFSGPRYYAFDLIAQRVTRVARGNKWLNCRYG

Usually IC50 stands for the concentration that inhibits the measured activity by half. A lower IC50 goes with greater potency in that assay. As for `O=C(C1CCN(c2ccc(S(=O)(=O)C3(C(=O)NO)CCOCC3)cc2)CC1)N1CCN(CCc2ccccc2)CC1`, the IC50 in series [1] was 0.9 µM; against Collagenase 3, 0.0251 µM. Further, in [2], the Ratio IC50 was 36.

Consider `C#CCN(C)C(=O)C1CCN(c2ccc(S(=O)(=O)C3(C(=O)NO)CCOCC3)cc2)CC1`, for which the IC50 was 2.1 µM in series [1] and 0.0245 µM against Collagenase 3. For the same molecule, in series [2], the Ratio IC50 came to 86.

With `COc1cc2c(cc1OC)CN(C(=O)C1CCN(c3ccc(S(=O)(=O)C4(C(=O)NO)CCOCC4)cc3)CC1)CC2`, in [1], the IC50 amounted to 2.4 µM.

For the molecule `O=C(C1CCN(c2ccc(S(=O)(=O)C3(C(=O)NO)CCOCC3)cc2)CC1)N1CCN(c2ccccc2F)CC1`, the Ratio IC50 in [2] worked out at 209.

On to `CC(=O)N1CCN(C(=O)C2CCN(c3ccc(S(=O)(=O)C4(C(=O)NO)CCOCC4)cc3)CC2)CC1`, for which, in [2], the Ratio IC50 was 50.

Regarding `O=C(C1CCN(c2ccc(S(=O)(=O)C3(C(=O)NO)CCOCC3)cc2)CC1)N1CCc2ccccc2C1`, the IC50 in series [1] was found to be 2.1 µM; on Collagenase 3, 0.009 µM. Moreover, the Ratio IC50 in [2] is 233.

In the case of `COCCN1CCN(C(=O)C2CCN(c3ccc(S(=O)(=O)C4(C(=O)NO)CCOCC4)cc3)CC2)CC1`, the IC50 was found to be 7 µM in series [1] and 0.045 µM on Collagenase 3. In series [2], the Ratio IC50 is 156.

Regarding `CC(C)N1CCN(C(=O)C2CCN(c3ccc(S(=O)(=O)C4(C(=O)NO)CCOCC4)cc3)CC2)CC1`, the Ratio IC50 in [2] was determined as 196.

On to `CC(=O)c1ccc(N2CCN(C(=O)C3CCN(c4ccc(S(=O)(=O)C5(C(=O)NO)CCOCC5)cc4)CC3)CC2)cc1`, for which, in series [2], the Ratio IC50 stood at 104.

In the case of `O=C(C1CCN(c2ccc(S(=O)(=O)C3(C(=O)NO)CCOCC3)cc2)CC1)N1CCN(c2ccncc2)CC1`, the Ratio IC50 in series [2] came out at 58.

On to `Cc1cccc(N2CCN(C(=O)C3CCN(c4ccc(S(=O)(=O)C5(C(=O)NO)CCOCC5)cc4)CC3)CC2)c1C`, for which the IC50 in [1] was 6 µM; at Interstitial collagenase, above 10 µM; against Stromelysin-1 it was 0.16 µM; at Neutrophil collagenase, above 10 µM; in series [3], above 10 µM; in series [4] it was above 10 µM. Besides, the IC50 on Collagenase 3 came out at 0.004 µM. In series [2], the Ratio IC50 came to 1500.

As to `Cc1cccc(N2CCN(C(=O)C3CCN(c4ccc(S(=O)(=O)C5(C(=O)NO)CCN(C6CC6)CC5)cc4)CC3)CC2)c1C`, the half-inhibitory concentration (IC50) in series [1] is 6.35 µM; against Interstitial collagenase, above 10 µM; against Stromelysin-1, 0.55 µM; against Neutrophil collagenase, 9.4 µM; in series [3], above 10 µM; in series [4] it was above 10 µM. This molecule also had an IC50 against Collagenase 3 of 0.0277 µM.

`COCCN1CCC(C(=O)NO)(S(=O)(=O)c2ccc(N3CCC(C(=O)N4CCN(c5cccc(C)c5C)CC4)CC3)cc2)CC1`: the IC50 was 0.4 µM in series [1], above 10 µM at Interstitial collagenase and 0.07 µM at Collagenase 3.

In the case of `CC1CN(C(=O)C2CCN(c3ccc(S(=O)(=O)C4(C(=O)NO)CCOCC4)cc3)CC2)CC(C)N1` (centres undefined), the half-maximal inhibitory concentration (IC50) in series [1] is 7.3 µM.

In general, half-life refers to the time needed for the level to fall by half in the phase considered. Broadly, the bioavailability is the share of a dose that reaches the circulation, judged against a reference dose that is usually intravenous. With `COCCN1CCC(C(=O)NO)(S(=O)(=O)c2ccc(N3CCC(C(=O)Nc4ccccc4)CC3)cc2)CC1`, the IC50 came to 10 µM at Interstitial collagenase; 0.37 µM against Stromelysin-1; 10 µM on Neutrophil collagenase; 1.23 µM in [3]; 10 µM in series [4]. Besides, the half-life in series [5] is 49.8 min. Besides, in series [6], the bioavailability was found to be 4.2%.

Take `O=C(C1CCN(c2ccc(S(=O)(=O)C3(C(=O)NO)CCOCC3)cc2)CC1)N1CCN(CCO)CC1`: the Ratio IC50 in series [2] is 150.

Regarding `C[C@@H]1COC[C@H](C)N1C(=O)C1CCN(c2ccc(S(=O)(=O)C3(C(=O)NO)CCOCC3)cc2)CC1`, the half-maximal inhibitory concentration (IC50) in [1] is above 10 µM; against Collagenase 3, 0.0181 µM.

In the case of `O=C(C1CCN(c2ccc(S(=O)(=O)C3(C(=O)NO)CCOCC3)cc2)CC1)N1CCN(c2ncccn2)CC1`, the Ratio IC50 in series [2] was 250.

As for `O=C(C1CCN(c2ccc(S(=O)(=O)C3(C(=O)NO)CCOCC3)cc2)CC1)N1CCN(c2ccccn2)CC1`, the Ratio IC50 in series [2] was determined as 336.

Turning to `Cc1ccc(N2CCN(C(=O)C3CCN(c4ccc(S(=O)(=O)C5(C(=O)NO)CCOCC5)cc4)CC3)CC2)c(C)c1`, the Ratio IC50 in series [2] amounted to 459.

On to `COCCN1CCC(C(=O)NO)(S(=O)(=O)c2ccc(N3CCC(C(=O)N4CC(C)NC(C)C4)CC3)cc2)CC1` (centres undefined), for which the figures for the IC50 (in [1]; against Collagenase 3) were 1.7 µM and 0.05 µM, respectively. Besides, in series [2], the Ratio IC50 came out at 34.

For `COc1ccccc1N1CCN(C(=O)C2CCN(c3ccc(S(=O)(=O)C4(C(=O)NO)CCOCC4)cc3)CC2)CC1`, the Ratio IC50 in series [2] was determined as 250.

Consider `C=CCN(C)C(=O)C1CCN(c2ccc(S(=O)(=O)C3(C(=O)NO)CCOCC3)cc2)CC1`, for which the values for the IC50 (in [1]; at Collagenase 3) were 2.9 µM and 0.035 µM, respectively. For the same molecule, the Ratio IC50 in series [2] came out at 83.

`CN(Cc1ccccc1)C(=O)C1CCN(c2ccc(S(=O)(=O)C3(C(=O)NO)CCN(C4CC4)CC3)cc2)CC1`: the IC50 was determined as 3.5 µM in series [1] and 0.02 µM against Collagenase 3. The Ratio IC50 in series [2] came to 175.

As for `CN(C)CCN1CCN(C(=O)C2CCN(c3ccc(S(=O)(=O)C4(C(=O)NO)CCOCC4)cc3)CC2)CC1`, the IC50 in series [1] is above 10 µM. Further, in series [2], the Ratio IC50 was above 111.

With `O=C(C1CCN(c2ccc(S(=O)(=O)C3(C(=O)NO)CCOCC3)cc2)CC1)N1CCN(c2cnccn2)CC1`, the Ratio IC50 in series [2] was found to be 34.

For the molecule `O=C(C1CCN(c2ccc(S(=O)(=O)C3(C(=O)NO)CCOCC3)cc2)CC1)N1CCN(c2ccc(F)cc2)CC1`, the Ratio IC50 in series [2] is 267.
